These results are taken from US20260184710A1, “CASITAS B-LINEAGE LYMPHOMA PROTOONCOGENE B (CBL-B) DEGRADING COMPOUNDS AND ASSOCIATED METHODS OF USE” (Arvinas Operations, Inc., priority 2022, published 2026).

In this assay the target is T1, Cbl-b (Homo sapiens, UniProt Q13191).
T1 construct: Cbl-b-HiBit KI Jurkat Cells were purchased from Promega; host or cells: Cbl-b-HiBiT knock-in Jurkat cells
In words: Cbl-b Degradation Method B (Nano-Glo HiBiT lytic detection). It counts as cell-based. The settings on record: Cbl-b-HiBit KI Jurkat Cells, incubated at least 6-24 hours; for DC50: half maximal degradation, read-out: Cbl-b Degredation Method B IC50; for Dmax: maximum degradation observed, read-out: Cbl-b Degredation Method B Dmax (%). The method, boiled down:
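Cbl-b-HiBiT knock-in Jurkat cells (20,000/well) were treated after ~24 h plating with an 11-point 1:3 series for 6-24 h at 37° C. Remaining Cbl-b measured by Nano-Glo HiBiT lytic luminescence. DC50 and Dmax expressed as % of control.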
Background: The HiBiT peptide binds its large partner to form an active luciferase.

What is called Dmax is the greatest extent of degradation seen.

T1 sequence (Q13191 whole entry): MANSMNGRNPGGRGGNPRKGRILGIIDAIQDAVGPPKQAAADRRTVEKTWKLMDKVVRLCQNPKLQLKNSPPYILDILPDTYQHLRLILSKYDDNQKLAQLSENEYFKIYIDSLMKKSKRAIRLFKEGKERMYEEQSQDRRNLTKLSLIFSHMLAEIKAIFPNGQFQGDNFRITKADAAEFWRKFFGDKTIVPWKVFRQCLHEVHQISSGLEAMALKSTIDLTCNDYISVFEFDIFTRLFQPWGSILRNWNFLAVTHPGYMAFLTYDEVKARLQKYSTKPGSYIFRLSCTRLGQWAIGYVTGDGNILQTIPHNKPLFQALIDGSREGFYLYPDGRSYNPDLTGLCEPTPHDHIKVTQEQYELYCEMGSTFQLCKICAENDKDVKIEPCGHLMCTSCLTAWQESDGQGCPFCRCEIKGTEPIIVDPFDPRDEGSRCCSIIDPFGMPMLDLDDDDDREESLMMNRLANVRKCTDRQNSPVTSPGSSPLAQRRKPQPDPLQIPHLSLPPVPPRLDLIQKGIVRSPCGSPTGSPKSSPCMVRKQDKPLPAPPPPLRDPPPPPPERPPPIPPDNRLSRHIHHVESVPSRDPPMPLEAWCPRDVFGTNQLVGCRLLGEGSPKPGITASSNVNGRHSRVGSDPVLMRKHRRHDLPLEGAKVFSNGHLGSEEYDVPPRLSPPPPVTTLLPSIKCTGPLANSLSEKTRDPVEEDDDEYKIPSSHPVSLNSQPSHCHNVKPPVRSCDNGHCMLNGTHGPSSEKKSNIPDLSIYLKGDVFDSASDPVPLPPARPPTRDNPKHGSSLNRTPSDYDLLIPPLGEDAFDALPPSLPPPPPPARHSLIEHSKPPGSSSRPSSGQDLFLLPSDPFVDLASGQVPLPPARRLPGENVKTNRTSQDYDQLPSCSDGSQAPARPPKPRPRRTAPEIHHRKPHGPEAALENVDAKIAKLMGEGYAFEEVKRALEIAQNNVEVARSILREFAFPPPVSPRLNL

With `CC1c2nc(N3CCC(O[C@H]4CC[C@@H](CN5[C@@H](C)CN(Cc6cc7c(c(C(F)(F)F)c6)CN(c6cccc(C8(Cc9nncn9C)COC8)c6)C7=O)C[C@@H]5C)CC4)CC3)ccc2C(=O)N1C1CCC(=O)NC1=O` (stereo partly drawn) [Example 249, 3-[7-methyl-5-oxo-2-(4-{[(1r*,4r*)-4-{[(2S,6S)-2,6-dimethyl-4-{[2-(3-{3-[(4-methyl-4H-1,2,4-triazol-3-yl)methyl]oxetan-3-yl}phenyl)-3-oxo-7-(trifluoromethyl)-2,3-dihydro-1H-isoindol-5-yl]methyl}piperazin-1-yl]methyl}cyclohexyl]oxy}piperidin-1-yl)-5H,6H,7H-pyrrolo[3,4-b]pyridin-6-yl]piperidine-2,6-dione], the DC50 is less than 5 nM and the Dmax was greater than 70%.

Consider `Cc1cc(C2CCN(CC3CCC4(CC3)CN(c3cc5c(c(C(F)(F)F)c3)CN(c3cccc([C@]6(Cc7nncn7C)C[C@@H](C#N)C6)c3)C5=O)C4)CC2)c(F)c2c1C(=O)N(C1CCC(=O)NC1=O)C2` (stereo partly drawn) [Example 272, (1r,3r)-3-(3-{6-[7-({4-[2-(2,6-dioxopiperidin-3-yl)-4-fluoro-7-methyl-1-oxo-2,3-dihydro-1H-isoindol-5-yl]piperidin-1-yl}methyl)-2-azaspiro[3.5]nonan-2-yl]-1-oxo-4-(trifluoromethyl)-2,3-dihydro-1H-isoindol-2-yl}phenyl)-3-[(4-methyl-4H-1,2,4-triazol-3-yl)methyl]cyclobutane-1-carbonitrile], for which the DC50 lay within 5 to 50 nM and the Dmax fell in the range of 35 to 70%.

In the case of `Cn1cnnc1C[C@]1(c2cccc(N3Cc4c(cc(CN5CCC[C@H](CN6CCN(C[C@H]7CC[C@H](OC8CCN(c9ccc%10c(c9F)CN(C9CCC(=O)NC9=O)C%10=O)CC8)CC7)CC6)C5)cc4C(F)(F)F)C3=O)c2)C[C@@H](C#N)C1` (stereo partly drawn) [Example 168, (1r,3r)-3-[(4-methyl-4H-1,2,4-triazol-3-yl)methyl]-3-[3-(1-oxo-6-{[(3S)-3-[(4-{[(1r,4r)-4-({1-[2-(2,6-dioxopiperidin-3-yl)-4-fluoro-1-oxo-2,3-dihydro-1H-isoindol-5-yl]piperidin-4-yl}oxy)cyclohexyl]methyl}piperazin-1-yl)methyl]piperidin-1-yl]methyl}-4-(trifluoromethyl)-2,3-dihydro-1H-isoindol-2-yl)phenyl]cyclobutane-1-carbonitrile], the DC50 was less than 5 nM and the Dmax is 35 to 70%.

Turning to `C[C@@H]1CN(Cc2cc3c(c(C(F)(F)F)c2)CN(c2cccc(C4(Cc5nncn5C)COC4)c2)C3=O)CCN1C[C@H]1CC[C@H](OC2CCN(c3ccc4c(c3F)CN(C3CCC(=O)NC3=O)C4=O)CC2)CC1` (stereo partly drawn) [Example 244, 3-[4-fluoro-1-oxo-5-(4-{[(1r*,4r*)-4-{[(2R)-2-methyl-4-{[2-(3-{3-[(4-methyl-4H-1,2,4-triazol-3-yl)methyl]oxetan-3-yl}phenyl)-3-oxo-7-(trifluoromethyl)-2,3-dihydro-1H-isoindol-5-yl]methyl}piperazin-1-yl]methyl}cyclohexyl]oxy}piperidin-1-yl)-2,3-dihydro-1H-isoindol-2-yl]piperidine-2,6-dione], the DC50 is less than 5 nM and the Dmax is greater than 70%.

Regarding `Cn1cnnc1CC1(c2cccc(-n3cc4ccc(CN5CCN(C[C@H]6CC[C@H](OC7CCN(c8ccc9c(c8F)CN(C8CCC(=O)NC8=O)C9=O)CC7)CC6)CC5)cc4n3)c2)COC1` (stereo partly drawn) [Example 207, 3-[4-fluoro-1-oxo-5-(4-{[(1r,4r)-4-[(4-{[2-(3-{3-[(4-methyl-4H-1,2,4-triazol-3-yl)methyl]oxetan-3-yl}phenyl)-2H-indazol-6-yl]methyl}piperazin-1-yl)methyl]cyclohexyl]oxy}piperidin-1-yl)-2,3-dihydro-1H-isoindol-2-yl]piperidine-2,6-dione], the DC50 was greater than 500 nM.
